One assay addresses T1, FGFR1 (Homo sapiens, UniProt P11362).
T1 construct: made in house; host or cells: E. coli (BL21-derived), T7 phage
Briefly: Kinase binding assay (kinase-tagged T7 phage, affinity beads, qPCR), Kd. The note with it: read-out: FGFR1 (Kd nM). An outline of the steps:
(§1)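 First, phage lysates carrying tagged kinase are made in E. coli at 32° C. Next, they are combined with blocked biotin-ligand streptavidin beads and compound at 0.9% final DMSO. Finally, eluted kinase is measured by qPCR and Kd is fitted with the Hill equation.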
For orientation: In qPCR the cycle at which signal appears reflects the starting amount.

A further assay deals with T2, FGFR2 (Homo sapiens, UniProt P21802).
T2 construct: made in house; host or cells: E. coli (BL21-derived), T7 phage
T2 sequence (P21802 22-821): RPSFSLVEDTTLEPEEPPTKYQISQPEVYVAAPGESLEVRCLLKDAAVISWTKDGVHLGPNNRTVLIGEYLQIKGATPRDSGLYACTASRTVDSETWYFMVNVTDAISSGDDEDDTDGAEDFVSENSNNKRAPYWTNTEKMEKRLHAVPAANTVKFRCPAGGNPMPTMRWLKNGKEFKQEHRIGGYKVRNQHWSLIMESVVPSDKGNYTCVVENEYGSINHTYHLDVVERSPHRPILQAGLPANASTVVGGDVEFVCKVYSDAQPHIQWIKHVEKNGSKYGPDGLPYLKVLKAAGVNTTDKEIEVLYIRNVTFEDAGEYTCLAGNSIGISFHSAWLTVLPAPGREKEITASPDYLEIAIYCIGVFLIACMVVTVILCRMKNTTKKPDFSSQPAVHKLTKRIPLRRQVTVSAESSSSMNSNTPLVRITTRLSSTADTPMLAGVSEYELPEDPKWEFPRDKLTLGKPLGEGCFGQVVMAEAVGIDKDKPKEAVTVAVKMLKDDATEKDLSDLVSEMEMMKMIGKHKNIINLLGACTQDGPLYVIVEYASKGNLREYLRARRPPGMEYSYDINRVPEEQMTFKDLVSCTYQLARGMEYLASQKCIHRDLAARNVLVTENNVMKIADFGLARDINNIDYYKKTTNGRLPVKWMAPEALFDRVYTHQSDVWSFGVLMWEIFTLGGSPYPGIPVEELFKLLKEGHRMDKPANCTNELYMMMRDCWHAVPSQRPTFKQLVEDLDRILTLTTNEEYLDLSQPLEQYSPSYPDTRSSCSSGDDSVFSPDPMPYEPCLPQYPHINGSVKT
The description is as above. Conditions: read-out: FGFR2 (Kd nM). In a few lines:
as §1

Another assay deals with T3, FGFR3 (Homo sapiens, UniProt P22607).
T3 construct: made in house; host or cells: E. coli (BL21-derived), T7 phage
T3 sequence (P22607 23-806): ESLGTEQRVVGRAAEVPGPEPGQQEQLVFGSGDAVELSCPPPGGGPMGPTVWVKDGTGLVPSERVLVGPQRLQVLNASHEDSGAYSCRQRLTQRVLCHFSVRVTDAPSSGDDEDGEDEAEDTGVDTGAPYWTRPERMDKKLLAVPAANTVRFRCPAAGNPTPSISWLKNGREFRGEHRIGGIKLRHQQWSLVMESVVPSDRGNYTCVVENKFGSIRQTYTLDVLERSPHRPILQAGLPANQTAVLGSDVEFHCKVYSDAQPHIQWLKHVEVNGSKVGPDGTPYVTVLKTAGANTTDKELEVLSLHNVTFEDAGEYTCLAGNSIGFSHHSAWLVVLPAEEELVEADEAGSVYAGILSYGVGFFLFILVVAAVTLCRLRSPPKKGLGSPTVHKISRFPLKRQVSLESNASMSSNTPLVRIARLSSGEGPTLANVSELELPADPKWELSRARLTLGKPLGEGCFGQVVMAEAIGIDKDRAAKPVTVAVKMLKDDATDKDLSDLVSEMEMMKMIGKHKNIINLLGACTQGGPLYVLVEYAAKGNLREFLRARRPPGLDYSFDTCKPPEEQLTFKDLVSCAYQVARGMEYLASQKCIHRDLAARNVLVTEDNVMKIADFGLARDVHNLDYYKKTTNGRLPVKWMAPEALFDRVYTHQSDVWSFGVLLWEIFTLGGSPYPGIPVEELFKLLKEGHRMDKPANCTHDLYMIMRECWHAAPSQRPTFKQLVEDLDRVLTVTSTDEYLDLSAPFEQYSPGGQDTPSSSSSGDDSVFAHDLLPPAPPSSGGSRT
The assay is described as above. Conditions: read-out: FGFR3 (Kd nM). In a few lines:
as §1

The next assay concerns the target T4, FGFR3 (V555M) (Homo sapiens, UniProt P22607, V555M).
T4 construct: made in house; host or cells: E. coli (BL21-derived), T7 phage
The assay is described as above. The note with it: V555M mutant; read-out: FGFR3 (V555M) (Kd nM). An outline of the steps:
as §1

In the next assay the target is T5, FGFR4 (Homo sapiens, UniProt P22455).
T5 construct: made in house; host or cells: E. coli (BL21-derived), T7 phage
T5 sequence (P22455 22-802): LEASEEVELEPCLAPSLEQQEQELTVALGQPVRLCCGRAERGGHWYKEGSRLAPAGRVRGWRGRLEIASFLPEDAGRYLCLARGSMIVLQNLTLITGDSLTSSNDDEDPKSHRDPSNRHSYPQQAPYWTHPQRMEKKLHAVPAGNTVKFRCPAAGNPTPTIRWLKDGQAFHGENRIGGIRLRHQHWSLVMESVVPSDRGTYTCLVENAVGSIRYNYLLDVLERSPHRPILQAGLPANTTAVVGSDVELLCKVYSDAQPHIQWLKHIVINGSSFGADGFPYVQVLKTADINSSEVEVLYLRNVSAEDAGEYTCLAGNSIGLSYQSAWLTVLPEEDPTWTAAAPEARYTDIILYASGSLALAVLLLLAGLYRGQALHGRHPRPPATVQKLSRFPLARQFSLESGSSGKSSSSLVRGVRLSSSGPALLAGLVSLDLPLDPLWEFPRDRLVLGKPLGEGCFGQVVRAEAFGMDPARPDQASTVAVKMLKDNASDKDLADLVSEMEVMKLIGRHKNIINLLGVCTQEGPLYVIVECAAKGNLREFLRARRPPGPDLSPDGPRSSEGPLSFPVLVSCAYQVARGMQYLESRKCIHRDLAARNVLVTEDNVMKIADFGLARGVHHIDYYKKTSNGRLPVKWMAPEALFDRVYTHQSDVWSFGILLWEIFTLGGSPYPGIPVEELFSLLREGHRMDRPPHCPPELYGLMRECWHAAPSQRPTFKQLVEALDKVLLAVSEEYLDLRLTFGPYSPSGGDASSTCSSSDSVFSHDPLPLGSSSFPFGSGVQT
The description is as above. The note with it: read-out: FGFR4 (Kd nM). An outline of the steps:
as §1

In assay [1] the test system is KATO-III cell line (FGFR2 amplification). Briefly: Cancer cell line cell viability assay (Cell Titer-Glo), 72 hr. The assay is classed as cell-based. Conditions: Homo sapiens, KATO III. An outline of the steps: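 5,000-20,000 cells/well o/n; cpd 9-pt 4x dil from 3 μM, n=3; 37° C/5% CO2; CTG 2.0 lumi; % DMSO ctrl; 4PL IC50.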
(Cellular ATP, detected with luciferase, serves as a proxy for viable cell number.)

Assay [2] has as its system KG-1 cell line (FGFR 1-fusion). The description is as above. The assay is classed as cell-based. The note with it: Homo sapiens, KG-1, KG-1 cell line (FGFR1-fusion). In a few lines: (§2)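 Intracellular ATP was measured by Cell Titer-Glo 2.0 luminescence after cells were incubated with compound dilutions (top 3 μM, 4-fold, 9 doses). Values were expressed relative to DMSO-treated cells and IC50 was calculated from a variable-slope dose-response curve.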

Assay [3] relates to RT112/84 cell line (FGFR3-fusion). The assay is described as above. Format: cell-based. The note with it: Homo sapiens, RT112/84, RT112/84 cell line (FGFR3-fusion). In a few lines: as §2
For assay [4], the system named is MDA-MB-453 cell line (FGFR4-Y367C). The experiment in a line: Cancer cell line cell viability assay (Cell Titer-Glo), 120 hr. Conditions: Homo sapiens. Format: cell-based. An outline of the steps:
as §2

T4 sequence (P22607 23-806 V555M): as the sequence (P22607 23-806) above, with V533M counted along it
T1 sequence (P11362 22-822): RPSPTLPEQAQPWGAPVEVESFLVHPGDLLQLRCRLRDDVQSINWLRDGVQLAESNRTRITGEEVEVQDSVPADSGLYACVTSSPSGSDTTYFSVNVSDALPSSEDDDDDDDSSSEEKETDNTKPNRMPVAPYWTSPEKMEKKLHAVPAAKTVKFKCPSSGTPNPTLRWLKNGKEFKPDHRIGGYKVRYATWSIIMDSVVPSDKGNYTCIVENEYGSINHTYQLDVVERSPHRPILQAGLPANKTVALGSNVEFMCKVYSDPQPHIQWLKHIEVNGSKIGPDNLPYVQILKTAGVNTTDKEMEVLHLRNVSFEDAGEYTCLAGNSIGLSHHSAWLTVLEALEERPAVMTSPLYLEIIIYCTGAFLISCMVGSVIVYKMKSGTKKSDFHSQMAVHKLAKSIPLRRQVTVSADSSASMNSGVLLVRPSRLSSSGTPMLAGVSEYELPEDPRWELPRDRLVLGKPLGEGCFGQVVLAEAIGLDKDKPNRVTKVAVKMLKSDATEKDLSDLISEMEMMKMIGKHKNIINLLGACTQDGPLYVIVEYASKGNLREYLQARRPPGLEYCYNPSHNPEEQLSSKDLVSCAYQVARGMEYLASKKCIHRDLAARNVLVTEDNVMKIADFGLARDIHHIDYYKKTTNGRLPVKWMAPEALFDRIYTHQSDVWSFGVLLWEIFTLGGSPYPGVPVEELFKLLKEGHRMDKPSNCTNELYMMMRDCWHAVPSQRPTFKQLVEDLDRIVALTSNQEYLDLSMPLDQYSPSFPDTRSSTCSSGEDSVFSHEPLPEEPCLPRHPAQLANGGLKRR

Take `C[C@@H](Oc1ccc2[nH]nc(-c3ccc(N4CC(C)(NCC5CC5)C4)nc3)c2c1)c1c(Cl)cncc1Cl` [Example 219, (R)-N-(cyclo-propylmethyl)-1-(5-(5-(1-(3,5-dichloropyridin-4-yl)ethoxy)-1H-indazol-3-yl)pyridin-2-yl)-3-methylazetidin-3-amine]: the Kd on FGFR1, at FGFR2, on FGFR3, at FGFR3 (V555M) and on FGFR4 was 1 to 50 nM in each case. The IC50 fell in the range of 0.1 to 50 nM in assay [1], 0.1 to 50 nM in assay [2], 0.1 to 50 nM in assay [3] and 50 to 200 nM in assay [4].

In the case of `C[C@@H](Oc1ccc2[nH]nc(-c3cnc(N4CC(C)(NCP(C)(C)=O)C4)c(F)c3)c2c1)c1c(Cl)cncc1Cl` [Example 182, 1-[5-[5-[(1R)-1-(3,5-dichloro-4-pyridyl)ethoxy]-1H-indazol-3-yl]-3-fluoro-2-pyridyl]-N-(dimethylphosphorylmethyl)-3-methyl-azetidin-3-amine], the Kd on FGFR1, on FGFR2, at FGFR3, at FGFR3 (V555M) and at FGFR4 was 1 to 50 nM each time. The IC50 lay within 0.1 to 50 nM in assay [1], 200 to 1000 nM in assay [2], 0.1 to 50 nM in assay [3] and 0.1 to 50 nM in assay [4].

In the case of `C[C@@H](Oc1ccc2[nH]nc(-c3cnc(N4CC(C)(NCCS(C)(=O)=O)C4)c(F)c3)c2c1)c1c(Cl)cncc1Cl` [Example 166, (R)-1-(5-(5-(1-(3,5-Dichloropyridin-4-yl)ethoxy)-1H-indazol-3-yl)-3-fluoropyridin-2-yl)-3-methyl-N-(2-(methylsulfonyl)ethyl)azetidin-3-amine], the Kd on FGFR1, on FGFR2, at FGFR3, at FGFR3 (V555M) and at FGFR4 was 1 to 50 nM each time. The IC50 in assay [1] was in the range of 0.1 to 50 nM; in assay [2], 50 to 200 nM; in [3], 0.1 to 50 nM; in assay [4], 0.1 to 50 nM.

`C[C@H](Oc1ccc2[nH]nc(-c3cnc(N4CC(C)(CS(C)(=O)=O)C4)c(F)c3)c2c1)c1c(Cl)cncc1Cl` [Example 200, (S)-5-(1-(3,5-dichloropyridin-4-yl)ethoxy)-3-(5-fluoro-6-(3-methyl-3-((methyl-sulfonyl)meth-yl)azetidin-1-yl)pyridin-3-yl)-1H-indazole]: the Kd on FGFR1 is 300 to 1000 nM; on FGFR2, above 1000 nM; at FGFR3 it was 50 to 300 nM; on FGFR3 (V555M), 1 to 50 nM; on FGFR4 it was 50 to 300 nM. Further, the IC50 in assay [1], in assay [2], in [3] and in [4] was above 1000 nM in each case.

For `COc1cc2[nH]nc(-c3ccc(N4CC(C)(NCCO)C4)nc3)c2cc1O[C@H](C)c1c(Cl)cncc1Cl` [Example 83, (R)-2-((1-(5-(5-(1-(3,5-dichloropyridin-4-yl)ethoxy)-6-methoxy-1H-indazol-3-yl)pyridin-2-yl)-3-methylazetidin-3-yl)amino)ethan-1-ol], the Kd at FGFR1, on FGFR2, on FGFR3, on FGFR3 (V555M) and on FGFR4 was 1 to 50 nM each time. The IC50 in assay [1] was in the range of 0.1 to 50 nM; in assay [2], 50 to 200 nM; in assay [3], 0.1 to 50 nM; in [4] it was 0.1 to 50 nM.

Consider `C[C@@H](Oc1ccc2[nH]nc(-c3cnc(N4CC(C)(N5CCS(=O)(=O)CC5)C4)c(F)c3)c2c1)c1c(Cl)cncc1Cl` [Example 167, 4-[1-[5-[5-[(1R)-1-(3,5-dichloro-4-pyridyl)ethoxy]-1H-indazol-3-yl]-3-fluoro-2-pyridyl]-3-methyl-azetidin-3-yl]-1,4-thiazinane 1,1-dioxide], for which the Kd at FGFR1, at FGFR2, on FGFR3, at FGFR3 (V555M) and on FGFR4 was 1 to 50 nM throughout. The IC50 is 0.1 to 50 nM in assay [1], 50 to 200 nM in [2], 0.1 to 50 nM in [3] and 0.1 to 50 nM in assay [4].

As to `CC(=O)N1CCN(C2(C)CN(c3ncc(-c4n[nH]c5ccc(O[C@H](C)c6c(Cl)cncc6Cl)cc45)cc3F)C2)CC1` [Example 220, 1-[4-[1-[5-[5-[(1R)-1-(3,5-dichloro-4-pyridyl)ethoxy]-1H-indazol-3-yl]-3-fluoro-2-pyridyl]-3-methyl-azetidin-3-yl]piperazin-1-yl]ethanone], the Kd on FGFR1, at FGFR2, on FGFR3, at FGFR3 (V555M) and on FGFR4 was 1 to 50 nM throughout. Also, the IC50 in assay [1] fell in the range of 0.1 to 50 nM; in [2], 50 to 200 nM; in [3], 0.1 to 50 nM; in [4] it was 50 to 200 nM.

In the case of `C[C@@H](Oc1ccc2[nH]nc(-c3cnc(N4C[C@@H](CS(C)(=O)=O)[C@@H]4C)c(F)c3)c2c1)c1c(Cl)cncc1Cl` [Example 206, 5-((R)-1-(3,5-dichloropyridin-4-yl)ethoxy)-3-(5-fluoro-6-((2S,3R)-2-methyl-3-((methylsulfonyl)methyl)azetidin-1-yl)pyridin-3-yl)-1H-indazole], the Kd at FGFR1, on FGFR2, at FGFR3, on FGFR3 (V555M) and on FGFR4 was 1 to 50 nM each time. In addition, the IC50 in assay [1] fell in the range of 0.1 to 50 nM; in [2], 50 to 200 nM; in [3], 0.1 to 50 nM; in assay [4], 50 to 200 nM.

As to `CC[C@@H](C)NC1(C)CN(c2ccc(-c3n[nH]c4ccc(O[C@H](C)c5c(Cl)cncc5Cl)cc34)cn2)C1` [Example 225, 1-[5-[5-[(1R)-1-(3,5-dichloro-4-pyridyl)ethoxy]-1H-indazol-3-yl]-2-pyridyl]-3-methyl-N-[(1R)-1-meth-ylpropyl]azetidin-3-amine], the Kd at FGFR1, at FGFR2, on FGFR3, at FGFR3 (V555M) and on FGFR4 was 1 to 50 nM throughout. The IC50 lay within 0.1 to 50 nM in assay [1], 50 to 200 nM in assay [2], 0.1 to 50 nM in assay [3] and 50 to 200 nM in [4].

As to `CC[C@H](C)NC1(C)CN(c2ccc(-c3n[nH]c4ccc(O[C@H](C)c5c(Cl)cncc5Cl)cc34)cn2)C1` [Example 228, 1-[5-[5-[(1R)-1-(3,5-dichloro-4-pyridyl)ethoxy]-1H-indazol-3-yl]-2-pyridyl]-3-methyl-N-[(1S)-1-meth-ylpropyl]azetidin-3-amine], the Kd on FGFR1, at FGFR2, at FGFR3, on FGFR3 (V555M) and on FGFR4 was 1 to 50 nM in each case. The IC50 in [1] lay within 0.1 to 50 nM; in assay [2], 50 to 200 nM; in assay [3], 0.1 to 50 nM; in assay [4], 50 to 200 nM.

As for `C[C@@H](Oc1ccc2[nH]nc(-c3cnc(N4CC(C)(NCC(F)F)C4)c(F)c3)c2c1)c1c(Cl)cncc1Cl` [Example 155, 1-[5-[5-[(1R)-1-(3,5-dichloro-4-pyridyl)ethoxy]-1H-indazol-3-yl]-3-fluoro-2-pyridyl]-N-(2,2-difluoroethyl)-3-methyl-azetidin-3-amine], the Kd at FGFR1, at FGFR2, at FGFR3, at FGFR3 (V555M) and at FGFR4 was 1 to 50 nM in each case. Also, the IC50 was in the range of 0.1 to 50 nM in [1], 50 to 200 nM in assay [2], 0.1 to 50 nM in assay [3] and 50 to 200 nM in assay [4].

For the molecule `CC(C)CNC1(C)CN(c2ncc(-c3n[nH]c4ccc(O[C@H](C)c5c(Cl)cncc5Cl)cc34)cc2F)C1` [Example 138, 1-[5-[5-[(1R)-1-(3,5-dichloro-4-pyridyl)ethoxy]-1H-indazol-3-yl]-3-fluoro-2-pyridyl]-N-isobutyl-3-methyl-azetidin-3-amine], the Kd on FGFR1, on FGFR2, on FGFR3, at FGFR3 (V555M) and on FGFR4 was 1 to 50 nM in each case. Moreover, the IC50 in [1] lay in the range of 0.1 to 50 nM; in [2], 50 to 200 nM; in [3] it was 0.1 to 50 nM; in assay [4], 50 to 200 nM.

By Kd is commonly meant the concentration at which binding is half-saturated. By IC50 is commonly meant the concentration that gives 50% inhibition. Higher therefore signals lower potency.

The values are drawn from patent US20250368666A1, “INDAZOLE COMPOUNDS” (TYRA BIOSCIENCES, INC., priority 2022, published 2025).
